Results on 1 compound are retold here after patent US20210205398A1, “COMPOSITIONS CONTAINING PHRAGMITIS RHIZOMA EXTRACT AS ACTIVE INGREDIENT FOR PREVENTION, AMELIORATION, OR TREATMENT OF A DISORDER CAUSED BY SIDE EFFECT OF ANTICANCER AGENT” (KOREA INSTITUTE OF ORIENTAL MEDICINE, priority 2016, published 2021).

Data set [1] deals with animal model having docetaxel-induced bone marrow suppression. Briefly: Blood cell numbers in animal model having docetaxel-induced bone marrow suppression. Type of data set: in vivo, C57BL/6 mice. How it is done: In order to determine the influence of Phragmitis Rhizoma extract on blood parameters of an animal model having bone marrow suppression, bone marrow suppression was induced by intraperitoneal injection of docetaxel to a mouse. After that, a change brought by the Phragmitis Rhizoma extract was determined.
Specifically, C57BL/6 mice were categorized into 5 groups. Group 1 is a control, i.e., a group treated with saline containing 5% ethanol and 2% polysorbate 80. Group 2 is a docetaxel treatment group, i.e., a group with intraperitoneal injection (3 times) of 30 mg/kg docetaxel. Group 3 is a docetaxel and 30 mg/kg Phragmitis Rhizoma extract administration group, i.e., a group to which compulsory administration of 30 mg/kg Phragmitis Rhizoma extract was carried out, once a day starting from 2 days before the administration of docetaxel, and the compulsory administration of 30 mg/kg Phragmitis Rhizoma extract (once a day) was continued even for the 3 days of administering docetaxel. Group 4 is a docetaxel and 100 mg/kg Phragmitis Rhizoma extract administration group, i.e., a group to which administration was carried out in the same manner as above Group 3. Lastly, Group 5 is a docetaxel and 300 mg/kg Phragmitis Rhizoma extract administration group, i.e., a group to which administration was carried out in the same manner as Group 3.
Blood was taken from the animal and a change in the number of blood cells was determined.

The subject of data set [2] is animal model having bone marrow suppression induced by docetaxel. Briefly: Alleviation of bone marrow suppression in animal model having bone marrow suppression induced by docetaxel. Type of data set: in vivo, C57BL/6 mice. On the procedure:
After that, a change brought by the Phragmitis Rhizoma extract was determined.
Specifically, C57BL/6 mice were categorized into 4 groups. Group 1 is a control, i.e., a group treated with saline containing 5% ethanol and 2% polysorbate 80. Group 2 is a docetaxel treatment group, i.e., a group with intraperitoneal injection (3 times) of 30 mg/kg docetaxel. Group 3 is a docetaxel and 125 mg/kg Phragmitis Rhizoma extract administration group, i.e., a group to which compulsory administration of 125 mg/kg Phragmitis Rhizoma extract was carried out, once a day starting from 2 days before the administration of docetaxel, and the compulsory administration of 125 mg/kg Phragmitis Rhizoma extract (once a day) was continued even for the 3 days of administering docetaxel. Lastly, Group 4 is a docetaxel and 250 mg/kg Phragmitis Rhizoma extract administration group, i.e., a group to which administration of 250 mg/kg Phragmitis Rhizoma extract was carried out, in the same manner as above Group 3, once a day starting from 2 days before the administration of docetaxel, and the compulsory administration of 250 mg/kg Phragmitis Rhizoma extract (once a day) was continued even for the 3 days of administering docetaxel.
After that, a change in body weight of the mouse belonging to each of the control group, docetaxel administration group, combined administration group with docetaxel and 125 mg/kg Phragmitis Rhizoma extract, and combined administration group with docetaxel and 250 mg/kg Phragmitis Rhizoma extract was measured every day. On Day 6, the mouse was sacrificed and the weight of the spleen and thymus, which play an important role in determining cell number change in bone marrow and hematopoiesis, was measured.
Organ index (mg/g)=Weight of organ (mg)/Weight of animal (g)

In data set [3] the test system is bone marrow cells from mouse femur. Description: Hematopoietic toxicity in mouse having intraperitoneal injection of anticancer agent (in vivo), bone marrow cell count. Also noted: species or system C57BL/6 mouse. The conditions noted are these: docetaxel i.p. 50, 100, or 150 mg/kg; three days and seven days after injection; FIG. 2. On the procedure: A C57BL/6 mouse was subjected to intraperitoneal injection of docetaxel at 50, 100, or 150 mg/kg. Three days and seven days after the injection, bone marrow cells were isolated from the mouse femur and counted, and the survival rate was measured.

The mark [4] stands for this setting: docetaxel 30 mg/kg i.p. 3 times, alone, mean ± SEM, ten mice.
[5] abbreviates: docetaxel 30 mg/kg i.p. 3 times, alone, Day 6.

Take `CC(=O)O[C@@]12CO[C@@H]1C[C@H](O)[C@@]1(C)C(=O)[C@H](O)C3=C(C)[C@@H](OC(=O)[C@H](O)[C@@H](NC(=O)OC(C)(C)C)c4ccccc4)C[C@@](O)([C@@H](OC(=O)c4ccccc4)[C@H]21)C3(C)C` [docetaxel]: in data set [1] (setting [4]), the Lymphocytes was determined as 1.56 ± 0.22, the Neutrophils was determined as 0.30 ± 0.01, the RBCs is 7.72 ± 0.15 and the WBCs is listed as 2.09 ± 0.19. Also, the “number of blood cells (in words)” value in data set [1] (docetaxel administration group) was “a decrease in the number of the white blood cells, neutrophils, lymphocytes, and red blood cells”. The “number of bone marrow cells (bone marrow mononuclear cells)” value in data set [2] (docetaxel 30 mg/kg i.p. 3 times, alone, vs control, FIG. 5) was “decreased significantly”. In data set [2] (setting [5]), this compound returned a Spleen index of 2.366 ± 0.22 mg/g and a Thymus index of 0.911 ± 0.22 mg/g. Besides, in data set [2] (docetaxel 30 mg/kg i.p. 3 times, alone, FIG. 4), the body weight entry is recorded as “a significant decrease in body weight was induced”. The “histopathological analysis of thymus” value in data set [2] (docetaxel administration, FIG. 7) was “organ shrinkage and loss of functional lymphoid organ”. For the same compound, in data set [2] (docetaxel alone), the “organ index of spleen and thymus (in words)” value is recorded as “a decrease in organ index”. In addition, the “expression of IL-3 (mRNA, spleen tissue)” value in data set [2] (docetaxel alone, FIG. 8) is listed as “largely decreased”. The “histological analysis of femur (H&E)” value in data set [2] (docetaxel only, FIG. 6) is “a hypocellularity and an abnormality in cellular structure in bone marrow”. The “number of isolated bone marrow cells” value in data set [3] is “a decrease in the number of the isolated bone marrow cells was observed in significant sense”.
